Source: PMC6704710, “Preclinical evaluation of 3D185, a novel potent inhibitor of FGFR1/2/3 and CSF-1R, in FGFR-dependent and macrophage-dominant cancer models” (Journal of Experimental & Clinical Cancer Research : CR, 2019)

Tests used:
Assay in all cases: Eurofins kinase panel
Type in all cases: biochemical
Details in all cases: read-out: Inhibition rate (%)
[1] = target: T1, EphA1(h) (Homo sapiens, UniProt P21709)
T1 construct: purchased Eurofins (KinaseProfiler)
T1 sequence (P21709 26-976): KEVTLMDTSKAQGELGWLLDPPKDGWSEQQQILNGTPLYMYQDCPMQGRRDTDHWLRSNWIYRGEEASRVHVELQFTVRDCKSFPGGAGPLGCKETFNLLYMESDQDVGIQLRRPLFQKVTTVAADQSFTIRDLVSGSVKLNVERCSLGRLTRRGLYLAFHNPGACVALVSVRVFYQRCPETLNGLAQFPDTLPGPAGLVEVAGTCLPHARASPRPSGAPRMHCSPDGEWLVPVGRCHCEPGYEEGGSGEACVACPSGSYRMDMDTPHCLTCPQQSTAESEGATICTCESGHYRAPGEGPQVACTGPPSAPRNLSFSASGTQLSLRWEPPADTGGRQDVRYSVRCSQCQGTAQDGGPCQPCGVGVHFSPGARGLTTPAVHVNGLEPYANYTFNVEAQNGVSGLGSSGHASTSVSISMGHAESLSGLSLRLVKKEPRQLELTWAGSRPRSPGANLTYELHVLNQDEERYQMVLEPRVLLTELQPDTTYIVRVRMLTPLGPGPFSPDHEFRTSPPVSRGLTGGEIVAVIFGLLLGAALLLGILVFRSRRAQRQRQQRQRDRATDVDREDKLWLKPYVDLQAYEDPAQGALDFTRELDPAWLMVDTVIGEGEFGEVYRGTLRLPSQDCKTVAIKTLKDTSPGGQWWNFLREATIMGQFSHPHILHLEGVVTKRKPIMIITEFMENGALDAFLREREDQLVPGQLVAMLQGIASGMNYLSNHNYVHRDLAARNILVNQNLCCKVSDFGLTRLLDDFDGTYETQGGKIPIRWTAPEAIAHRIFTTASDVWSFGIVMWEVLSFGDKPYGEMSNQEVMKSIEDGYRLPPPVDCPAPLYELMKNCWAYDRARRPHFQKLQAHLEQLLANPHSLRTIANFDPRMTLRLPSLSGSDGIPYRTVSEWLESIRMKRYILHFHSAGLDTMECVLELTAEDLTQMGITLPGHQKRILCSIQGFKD

[2] = target: T2, JAK2(h) (Homo sapiens, UniProt O60674)
T2 construct: purchased Eurofins (KinaseProfiler)

[3] = target: T3, CDK1/cyclinB(h) (Homo sapiens, UniProt P06493)
T3 construct: purchased Eurofins (KinaseProfiler)

[4] = target: T4, TrkB(h) (Homo sapiens, UniProt Q16620)
T4 construct: purchased Eurofins (KinaseProfiler)

[5] = target: T5, PDGFRα(D842V)(h) (Homo sapiens, UniProt P16234, D842V)
T5 construct: purchased Eurofins (KinaseProfiler)

[6] = target: T6, NEK9(h) (Homo sapiens, UniProt Q8TD19)
T6 construct: purchased Eurofins (KinaseProfiler)
T6 sequence (Q8TD19 1-979): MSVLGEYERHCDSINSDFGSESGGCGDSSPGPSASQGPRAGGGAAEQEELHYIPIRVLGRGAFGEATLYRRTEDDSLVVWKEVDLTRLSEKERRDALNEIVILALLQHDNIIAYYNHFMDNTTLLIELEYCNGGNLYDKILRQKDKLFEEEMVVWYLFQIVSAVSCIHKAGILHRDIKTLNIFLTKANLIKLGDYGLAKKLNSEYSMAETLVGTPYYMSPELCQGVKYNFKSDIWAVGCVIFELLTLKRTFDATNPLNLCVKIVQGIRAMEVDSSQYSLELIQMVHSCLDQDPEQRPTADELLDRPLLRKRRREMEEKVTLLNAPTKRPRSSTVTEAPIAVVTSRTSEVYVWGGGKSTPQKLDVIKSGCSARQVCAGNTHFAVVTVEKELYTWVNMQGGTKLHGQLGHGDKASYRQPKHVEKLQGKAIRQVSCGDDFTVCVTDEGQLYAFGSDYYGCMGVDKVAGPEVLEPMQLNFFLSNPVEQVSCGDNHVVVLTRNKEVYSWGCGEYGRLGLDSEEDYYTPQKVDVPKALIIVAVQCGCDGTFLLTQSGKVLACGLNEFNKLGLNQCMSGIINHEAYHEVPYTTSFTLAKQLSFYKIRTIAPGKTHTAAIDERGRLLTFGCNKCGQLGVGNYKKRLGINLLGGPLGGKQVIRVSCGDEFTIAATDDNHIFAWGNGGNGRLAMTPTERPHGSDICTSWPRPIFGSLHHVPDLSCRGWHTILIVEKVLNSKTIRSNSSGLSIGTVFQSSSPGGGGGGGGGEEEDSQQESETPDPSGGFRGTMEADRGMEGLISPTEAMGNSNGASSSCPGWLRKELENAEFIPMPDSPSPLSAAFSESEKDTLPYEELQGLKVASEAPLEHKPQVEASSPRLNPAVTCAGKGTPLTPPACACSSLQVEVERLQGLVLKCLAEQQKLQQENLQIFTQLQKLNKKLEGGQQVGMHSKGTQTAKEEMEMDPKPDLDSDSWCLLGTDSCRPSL

T3 sequence (P06493 whole entry): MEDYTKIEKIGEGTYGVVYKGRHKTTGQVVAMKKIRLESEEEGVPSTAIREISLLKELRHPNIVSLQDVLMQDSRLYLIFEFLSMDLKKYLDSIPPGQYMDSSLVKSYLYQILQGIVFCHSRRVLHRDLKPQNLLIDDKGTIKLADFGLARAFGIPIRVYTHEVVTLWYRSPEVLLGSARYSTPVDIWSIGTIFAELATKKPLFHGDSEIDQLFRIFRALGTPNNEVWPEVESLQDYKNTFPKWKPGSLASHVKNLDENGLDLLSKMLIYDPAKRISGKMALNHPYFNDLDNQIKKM
T3 sequence (P14635 whole entry partner): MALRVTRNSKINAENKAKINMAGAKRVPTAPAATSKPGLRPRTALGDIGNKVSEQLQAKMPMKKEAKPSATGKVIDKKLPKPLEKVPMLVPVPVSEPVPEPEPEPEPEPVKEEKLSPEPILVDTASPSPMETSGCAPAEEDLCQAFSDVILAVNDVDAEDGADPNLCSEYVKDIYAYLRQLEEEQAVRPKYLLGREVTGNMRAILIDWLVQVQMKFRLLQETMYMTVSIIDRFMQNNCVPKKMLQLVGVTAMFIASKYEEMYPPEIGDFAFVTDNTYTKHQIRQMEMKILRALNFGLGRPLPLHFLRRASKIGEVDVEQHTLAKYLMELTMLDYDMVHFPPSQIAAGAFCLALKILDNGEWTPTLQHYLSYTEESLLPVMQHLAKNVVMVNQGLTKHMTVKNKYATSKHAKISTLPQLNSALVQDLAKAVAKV
T4 sequence (Q16620 32-822): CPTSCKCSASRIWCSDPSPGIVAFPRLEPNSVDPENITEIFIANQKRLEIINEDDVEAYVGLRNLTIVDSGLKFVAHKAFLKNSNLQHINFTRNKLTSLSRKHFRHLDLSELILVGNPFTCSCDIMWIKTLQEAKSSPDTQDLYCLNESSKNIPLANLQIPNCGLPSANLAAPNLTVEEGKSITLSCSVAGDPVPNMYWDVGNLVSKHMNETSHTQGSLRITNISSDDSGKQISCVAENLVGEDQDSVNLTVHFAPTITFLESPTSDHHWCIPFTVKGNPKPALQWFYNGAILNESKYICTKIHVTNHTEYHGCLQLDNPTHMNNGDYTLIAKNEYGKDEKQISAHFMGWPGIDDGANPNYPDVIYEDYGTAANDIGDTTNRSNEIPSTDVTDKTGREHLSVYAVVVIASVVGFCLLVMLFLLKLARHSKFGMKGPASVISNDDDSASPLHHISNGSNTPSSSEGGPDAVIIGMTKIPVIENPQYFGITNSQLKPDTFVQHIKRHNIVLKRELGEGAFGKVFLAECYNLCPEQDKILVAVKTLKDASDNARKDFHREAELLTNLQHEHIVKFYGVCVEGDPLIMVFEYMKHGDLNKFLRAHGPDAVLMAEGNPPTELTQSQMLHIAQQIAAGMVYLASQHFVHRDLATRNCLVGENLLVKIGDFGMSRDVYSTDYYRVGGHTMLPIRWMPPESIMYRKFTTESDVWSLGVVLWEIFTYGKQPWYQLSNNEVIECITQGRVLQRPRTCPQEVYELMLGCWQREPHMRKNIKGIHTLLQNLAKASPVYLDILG
T2 sequence (O60674 whole entry): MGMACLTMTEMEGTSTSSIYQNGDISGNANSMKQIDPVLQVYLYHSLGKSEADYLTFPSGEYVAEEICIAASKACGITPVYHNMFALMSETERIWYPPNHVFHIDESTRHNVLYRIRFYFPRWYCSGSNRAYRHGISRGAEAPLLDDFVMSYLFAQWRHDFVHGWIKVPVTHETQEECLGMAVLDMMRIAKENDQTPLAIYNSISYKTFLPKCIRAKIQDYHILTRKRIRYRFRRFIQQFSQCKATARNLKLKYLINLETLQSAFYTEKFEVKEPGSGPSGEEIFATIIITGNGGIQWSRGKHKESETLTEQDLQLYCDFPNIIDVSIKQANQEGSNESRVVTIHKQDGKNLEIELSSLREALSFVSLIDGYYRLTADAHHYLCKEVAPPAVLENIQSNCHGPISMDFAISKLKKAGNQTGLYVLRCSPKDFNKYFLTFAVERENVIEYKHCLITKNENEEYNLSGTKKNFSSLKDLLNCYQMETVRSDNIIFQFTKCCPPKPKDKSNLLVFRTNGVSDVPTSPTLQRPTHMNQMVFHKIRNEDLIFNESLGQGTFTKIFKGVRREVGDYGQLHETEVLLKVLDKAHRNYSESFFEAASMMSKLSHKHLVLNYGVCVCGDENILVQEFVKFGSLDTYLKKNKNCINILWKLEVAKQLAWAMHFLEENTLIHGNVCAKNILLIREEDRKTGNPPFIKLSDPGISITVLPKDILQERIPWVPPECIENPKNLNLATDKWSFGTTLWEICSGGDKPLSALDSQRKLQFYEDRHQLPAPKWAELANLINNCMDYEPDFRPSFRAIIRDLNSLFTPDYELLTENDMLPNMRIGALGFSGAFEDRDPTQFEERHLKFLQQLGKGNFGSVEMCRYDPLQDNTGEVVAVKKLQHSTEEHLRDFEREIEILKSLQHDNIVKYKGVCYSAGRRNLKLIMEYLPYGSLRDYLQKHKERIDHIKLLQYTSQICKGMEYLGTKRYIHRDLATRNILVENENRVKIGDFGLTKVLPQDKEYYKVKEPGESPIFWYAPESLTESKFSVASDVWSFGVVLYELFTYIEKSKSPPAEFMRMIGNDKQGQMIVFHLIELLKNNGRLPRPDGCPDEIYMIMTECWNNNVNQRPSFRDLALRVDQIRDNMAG
T5 sequence (P16234 24-1089 D842V): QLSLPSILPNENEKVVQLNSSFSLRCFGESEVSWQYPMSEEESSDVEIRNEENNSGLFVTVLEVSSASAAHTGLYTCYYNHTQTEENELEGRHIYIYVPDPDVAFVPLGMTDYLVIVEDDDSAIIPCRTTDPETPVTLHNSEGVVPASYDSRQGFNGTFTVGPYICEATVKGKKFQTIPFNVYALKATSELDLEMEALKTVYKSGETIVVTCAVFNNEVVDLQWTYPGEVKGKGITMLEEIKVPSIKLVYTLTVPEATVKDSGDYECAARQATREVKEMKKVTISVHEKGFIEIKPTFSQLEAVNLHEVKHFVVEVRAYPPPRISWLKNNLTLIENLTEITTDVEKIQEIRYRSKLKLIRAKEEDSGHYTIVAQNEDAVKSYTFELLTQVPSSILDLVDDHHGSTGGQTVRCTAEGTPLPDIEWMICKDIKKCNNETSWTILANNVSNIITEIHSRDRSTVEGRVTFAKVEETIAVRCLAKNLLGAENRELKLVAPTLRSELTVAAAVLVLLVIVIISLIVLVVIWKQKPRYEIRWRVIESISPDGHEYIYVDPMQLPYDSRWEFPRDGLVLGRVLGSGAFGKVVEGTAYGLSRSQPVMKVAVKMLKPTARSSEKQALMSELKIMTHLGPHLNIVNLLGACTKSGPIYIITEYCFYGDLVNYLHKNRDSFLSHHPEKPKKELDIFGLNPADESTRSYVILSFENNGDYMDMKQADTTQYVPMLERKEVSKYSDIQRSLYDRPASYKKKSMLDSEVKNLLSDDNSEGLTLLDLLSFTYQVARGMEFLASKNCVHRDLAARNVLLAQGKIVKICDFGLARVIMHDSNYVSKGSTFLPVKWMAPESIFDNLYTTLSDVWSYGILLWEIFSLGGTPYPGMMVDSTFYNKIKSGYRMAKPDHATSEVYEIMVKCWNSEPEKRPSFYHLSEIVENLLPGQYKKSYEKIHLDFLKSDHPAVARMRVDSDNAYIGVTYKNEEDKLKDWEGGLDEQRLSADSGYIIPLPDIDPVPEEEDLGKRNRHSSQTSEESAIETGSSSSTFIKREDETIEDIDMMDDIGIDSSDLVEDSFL

## COc1cc(OC)c(Cl)c(-c2ccc3c(NC(=O)c4ccc(N5CCNC(C)(C)C5)cc4)n[nH]c3n2)c1Cl [3D185]
[1]; 10 nM
  inhibition at 0.01 µM: 0%
[1]; 100 nM
  inhibition at 0.1 µM: -14%
[1]; 1000 nM
  inhibition at 1 µM: -6%
[2]; 10 nM
  inhibition at 0.01 µM: -14%
[2]; 100 nM
  inhibition at 0.1 µM: 5%
[2]; 1000 nM
  inhibition at 1 µM: 6%
[3]; 10 nM
  inhibition at 0.01 µM: 0%
[3]; 100 nM
  inhibition at 0.1 µM: 2%
[3]; 1000 nM
  inhibition at 1 µM: -11%
[4]; 10 nM
  inhibition at 0.01 µM: 31%
[4]; 100 nM
  inhibition at 0.1 µM: 87%
[4]; 1000 nM
  inhibition at 1 µM: 97%
[5]; 10 nM
  inhibition at 0.01 µM: -2%
[5]; 100 nM
  inhibition at 0.1 µM: 5%
[5]; 1000 nM
  inhibition at 1 µM: 9%
[6]; 10 nM
  inhibition at 0.01 µM: -12%
[6]; 100 nM
  inhibition at 0.1 µM: -6%
[6]; 1000 nM
  inhibition at 1 µM: 14%
